Laboratory results as given in patent US12091652B2, “Ammonia-oxidizing Nitrosomonas eutropha strain D23” (priority 2014, dated 2024).
Like-named read-outs stand apart in the source and are kept apart here.

System: Nitrosomonas eutropha D23
Assay: Antibiotic susceptibility (MIC) of N. eutropha D23 cultures in vitro
Assay type: cell-based
Details: for MIC: 30° C., 48-72 hr, OD600, two-fold dilution series; for MIC Interpretive Criteria (phenotype of N. eutropha D23): CLSI criteria, MIC levels of the outcome stand in parentheses in the cell
Description: The activities of five antibiotics, each representing a different antibiotic class, were tested against Nitrosomonas eutropha D23. The antibiotics tested included clindamycin, erythromycin, gentamicin, piperacillin with or without the β-lactamase inhibitor Tazobactam, and tetracycline. These were chosen based on the Clinical and Laboratory Standards Institute (CLSI) recommendations for routine testing and reporting of phylogenetically-related proteobacteria (Pseudomonas aeruginosa) listed under Non-fastidious organisms and Non-Enterobacteriaceae in the CLSI 24th Informational Supplement (M100-S24), and also included topical or systemic antimicrobial agents commonly used against acne, such as clindamycin or tetracycline. Studies with clindamycin were included even though this antibiotic was not expected to be very effective at inhibiting Nitrosomonas, as is the case for other aerobic Gram-negative bacteria.
Minimal Inhibitory Concentrations (MICs) were determined by culturing N. eutropha D23 in decreasing concentrations of each of the five antibiotics. Bacterial growth at 30° C. was monitored for 48-72 hr by determining optical density (OD600) values in samples collected at 24 hr intervals. MIC values were identified as the lowest antibiotic concentration from a two-fold dilution series leading to no increase in OD600 measurements for the 2 or 3-day incubation period. The N. eutropha D23 phenotype in each antibiotic test was determined as Susceptible, Intermediate, or Resistant according to the MIC Interpretive Criteria provided by the CLSI. […] Clindamycin resistance observed for N. eutropha D23 is in agreement with previous reports for natural resistance of aerobic Gram-negative bacteria to this antibiotic. In addition to testing the β-lactam antibiotic piperacillin alone, the broad range β-lactamase inhibitor Tazobactam was also tested in combination with piperacillin to assess the possible expression of β-lactamase(s) by N. eutropha D23.

[1] = Nitrosomonas eutropha, D23, read-out: MIC

| Molecule | MIC [1] [µg/mL] | MIC Interpretive Criteria (phenotype of N. eutropha D23) | also measured |
| --- | --- | --- | --- |
| CCC[C@@H]1C[C@@H](C(=O)N[C@@H]([C@H]2O[C@H](SC)[C@H](O)[C@@H](O)[C@H]2O)[C@H](C)Cl)N(C)C1 [Clindamycin] | > 16 |  |  |
| CC[C@H]1OC(=O)[C@H](C)[C@@H](O[C@H]2C[C@@](C)(OC)[C@@H](O)[C@H](C)O2)[C@H](C)[C@@H](O[C@@H]2O[C@H](C)C[C@H](N(C)C)[C@H]2O)[C@](C)(O)C[C@@H](C)C(=O)[C@H](C)[C@@H](O)[C@]1(C)O [Erythromycin] | 0.16 | Susceptible (≤0.5 μg/ml) | MIC Interpretive Criteria (phenotype of N. eutropha D23) (listed as erythromycin): susceptibility |
| CCN1CCN(C(=O)N[C@@H](C(=O)N[C@@H]2C(=O)N3[C@@H]2SC(C)(C)[C@@H]3C(=O)O)c2ccccc2)C(=O)C1=O [Piperacillin] | 64 | Intermediate (32-64 μg/ml) | MIC Interpretive Criteria (phenotype of N. eutropha D23) (listed as piperacillin): intermediate resistance |
| C[C@]1(Cn2ccnn2)[C@H](C(=O)O)N2C(=O)C[C@H]2S1(=O)=O [Tazobactam] |  |  | effect of adding the β-lactamase inhibitor to piperacillin on N. eutropha D23 susceptibility (in combination with piperacillin): no increase in N. eutropha D23 susceptibility |
| CN(C)[C@@H]1C(O)=C(C(N)=O)C(=O)[C@@]2(O)C(O)=C3C(=O)c4c(O)cccc4[C@@](C)(O)[C@H]3C[C@@H]12 [Tetracycline] | 8 |  |  |
| Gentamicin |  | Susceptible (≤4 μg/ml) | MIC: 0.25 µg/mL; MIC Interpretive Criteria (phenotype of N. eutropha D23) (listed as gentamicin): susceptibility |
| Piperacillin/Tazobactam |  | Intermediate | MIC: 64/4 |
